Assay results published in US20260327191A1, “GSK3a INHIBITORS AND METHODS OF USE THEREOF” (Blueprint Medicines Corporation, priority 2023, published 2026).
pIC50: −log10 of the molar value.

Tests used:
[1] = target: T1, GSK3B (Homo sapiens, UniProt P49841); test: NanoBRET cellular target engagement assay, Nanoluc-GSK3B in HEK293 cells; format: cell-based; design: expressed in transfected cells; settings: NanoBRET GSK3β IC50, HEK293 cells, tracer K-8, 2 hours, 37° C
[2] = target: T2, human GSK3α (Homo sapiens, UniProt P49840); test: In vitro enzymatic activity assay, GSK3α; format: biochemical; settings: 1.0 mM ATP, 1.0 μM peptide substrate, 120 min, 25° C, read-out: Enzyme GSK3α (IC50)
T2 construct: Full length human GSK3α or GSK3B expressed as N-terminal GST fusion proteins; GST (N); purchased Carna Biosciences (Japan); host or cells: baculovirus host
T2 sequence (P49840 whole entry, the tested form may be a part): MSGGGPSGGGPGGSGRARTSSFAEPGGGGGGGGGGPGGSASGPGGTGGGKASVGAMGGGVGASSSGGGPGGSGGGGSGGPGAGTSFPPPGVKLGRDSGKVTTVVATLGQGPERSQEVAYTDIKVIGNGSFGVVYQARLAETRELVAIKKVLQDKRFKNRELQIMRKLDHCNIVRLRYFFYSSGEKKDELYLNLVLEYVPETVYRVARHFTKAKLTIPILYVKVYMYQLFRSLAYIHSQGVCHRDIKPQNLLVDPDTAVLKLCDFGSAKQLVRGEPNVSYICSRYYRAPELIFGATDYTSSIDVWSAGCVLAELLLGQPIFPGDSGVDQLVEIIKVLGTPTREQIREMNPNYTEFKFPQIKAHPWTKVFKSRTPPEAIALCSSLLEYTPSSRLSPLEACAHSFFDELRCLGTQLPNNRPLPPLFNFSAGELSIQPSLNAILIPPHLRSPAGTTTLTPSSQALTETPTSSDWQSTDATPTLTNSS

[3] = target: T1, GSK3B; test: In vitro enzymatic activity assay, GSK3β; format: biochemical; design: Full length human GSK3α or GSK3B expressed as N-terminal GST fusion proteins; GST (N); purchased Carna Biosciences (Japan); host or cells: baculovirus host; settings: 1.0 mM ATP, 1.0 μM peptide substrate, 120 min, 25° C, read-out: Enzyme GSK3β (IC50)
[4] = target: T3, GSK3A (Homo sapiens, UniProt P49840); test: NanoBRET cellular target engagement assay, Nanoluc-GSK3A in HEK293 cells; format: cell-based; settings: NanoBRET GSK3α IC50, HEK293 cells, tracer K-8, 2 hours, 37° C
T3 construct: expressed in transfected cells
T3 sequence (P49840 whole entry): as the sequence (P49840 whole entry, the tested form may be a part) above

T1 sequence (P49841 whole entry): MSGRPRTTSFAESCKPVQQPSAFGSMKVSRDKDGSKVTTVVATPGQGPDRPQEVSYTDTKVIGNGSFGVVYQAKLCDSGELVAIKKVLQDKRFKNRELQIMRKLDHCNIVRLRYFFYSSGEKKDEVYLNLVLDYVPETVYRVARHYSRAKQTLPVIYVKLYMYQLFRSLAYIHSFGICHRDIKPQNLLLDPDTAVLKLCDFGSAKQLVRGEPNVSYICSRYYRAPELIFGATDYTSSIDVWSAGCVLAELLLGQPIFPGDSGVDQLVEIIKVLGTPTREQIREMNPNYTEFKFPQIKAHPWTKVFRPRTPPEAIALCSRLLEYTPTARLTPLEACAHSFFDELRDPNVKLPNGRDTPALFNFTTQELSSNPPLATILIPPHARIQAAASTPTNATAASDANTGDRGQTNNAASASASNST

| SMILES | pIC50 [1] | pIC50 [2] | pIC50 [3] | pIC50 [4] |
| --- | --- | --- | --- | --- |
| CCNCc1cncc(NC(=O)c2c(N)ncn(-c3c(Cl)cc(-c4ncco4)cc3Cl)c2=O)c1 [Example 201, 4-amino-1-(2,6-dichloro-4-(oxazol-2-yl)phenyl)-N-(5-((ethylamino)methyl)pyridin-3-yl)-6-oxo-1,6-dihydropyrimidine-5-carboxamide] | 6.37 | 7.86 | 6.22 | 8.13 |
| Cc1cc(C(F)(F)F)cc(C)c1-n1cnc(N)c(C(=O)Nc2cncc([C@H]3CCCCN3)c2)c1=O [Example 216, (R)-4-amino-1-(2,6-dimethyl-4-(trifluoromethyl)phenyl)-6-oxo-N-(5-(piperidin-2-yl)pyridin-3-yl)-1,6-dihydropyrimidine-5-carboxamide] | 6.76 | 8.25 | 6.53 | 8.47 |
| Cc1cc(C(F)F)cc(C)c1-n1cnc(N)c(C(=O)Nc2cncc(C3CCCC(C)N3)c2)c1=O (single isomer, unassigned) [Example 107] | 6.36 | 8.00 | 6.17 | 8.41 |
| CCNCc1cncc(NC(=O)c2c(N)ncn(-c3c(Cl)cc(OC(F)F)cc3Cl)c2=O)c1 [Example 10, 4-amino-1-(2,6-dichloro-4-(difluoromethoxy)phenyl)-N-(5-((ethylamino)methyl)pyridin-3-yl)-6-oxo-1,6-dihydropyrimidine-5-carboxamide] | 6.43 | 8.06 | 6.40 | 8.16 |
| COc1ccccc1-n1cnc(N)c(C(=O)Nc2cccc(C3CCCN3)c2N2CCOCC2)c1=O (single isomer, unassigned) [Example 166, (S)-4-amino-1-(2-methoxyphenyl)-N-(2-morpholino-3-(pyrrolidin-2-yl)phenyl)-6-oxo-1,6-dihydropyrimidine-5-carboxamide or (R)-4-amino-1-(2-methoxyphenyl)-N-(2-morpholino-3-(pyrrolidin-2-yl)phenyl)-6-oxo-1,6-dihydropyrimidine-5-carboxamide] | 4.79 | 6.55 | 5.03 | 6.75 |
| CN[C@@H](COC)c1cncc(NC(=O)c2c(N)ncn(-c3c(Cl)cc(OC)cc3Cl)c2=O)c1 (single isomer, unassigned) [Example 80, (R)-4-amino-1-(2,6-dichloro-4-methoxyphenyl)-N-(5-(2-methoxy-1-(methylamino)ethyl)pyridin-3-yl)-6-oxo-1,6-dihydropyrimidine-5-carboxamide or (S)-4-amino-1-(2,6-dichloro-4-methoxyphenyl)-N-(5-(2-methoxy-1-(methylamino)ethyl)pyridin-3-yl)-6-oxo-1,6-dihydropyrimidine-5-carboxamide] | 6.57 | 8.60 | 6.57 | 8.54 |
| C[C@@H](N)c1cncc(NC(=O)c2c(N)ncn(-c3c(Cl)cc(C(F)F)cc3Cl)c2=O)c1 (single isomer, unassigned) [Example 57, (R)-4-amino-N-(5-(1-aminoethyl)pyridin-3-yl)-1-(2,6-dichloro-4-(difluoromethyl)phenyl)-6-oxo-1,6-dihydropyrimidine-5-carboxamide or (S)-4-amino-N-(5-(1-aminoethyl)pyridin-3-yl)-1-(2,6-dichloro-4-(difluoromethyl)phenyl)-6-oxo-1,6-dihydropyrimidine-5-carboxamide] | 6.56 | 8.10 | 6.42 | 8.27 |
| COC[C@@H](N)c1cccc(NC(=O)c2c(N)ncn(-c3c(C)cc(C#N)cc3Cl)c2=O)c1 (atropisomer, axis not shown) [Example 42, (S)-4-amino-N-(3-(1-amino-2-methoxyethyl)phenyl)-1-((S)-2-chloro-4-cyano-6-methylphenyl)-6-oxo-1,6-dihydropyrimidine-5-carboxamide] | 6.59 | 8.32 | 6.53 | 8.54 |
| COc1cc(Cl)c(-n2cnc(N)c(C(=O)Nc3cncc([C@@H]4COCCCN4)c3)c2=O)c(Cl)c1 (single isomer, unassigned) [Example 75, (R)-N-(5-(1,4-oxazepan-3-yl)pyridin-3-yl)-4-amino-1-(2,6-dichloro-4-methoxyphenyl)-6-oxo-1,6-dihydropyrimidine-5-carboxamide or (S)-N-(5-(1,4-oxazepan-3-yl)pyridin-3-yl)-4-amino-1-(2,6-dichloro-4-methoxyphenyl)-6-oxo-1,6-dihydropyrimidine-5-carboxamide] | 6.73 | 8.62 | 6.97 | 8.44 |
| COCc1cc(C)c(-n2cnc(N)c(C(=O)Nc3cnnc(C(N)=O)c3)c2=O)c(C)c1 [Example 30, 5-(4-amino-1-(4-(methoxymethyl)-2,6-dimethylphenyl)-6-oxo-1,6-dihydropyrimidine-5-carboxamido)pyridazine-3-carboxamide] | 4.80 | 7.19 | 5.71 | 7.14 |
| Cc1cc([C@@H](C)F)cc(C)c1-n1cnc(N)c(C(=O)Nc2cncc([C@H]3CCCCN3)c2)c1=O (single isomer, unassigned) [Example 185, 4-amino-1-(4-((R)-1-fluoroethyl)-2,6-dimethylphenyl)-6-oxo-N-(5-((R)-piperidin-2-yl)pyridin-3-yl)-1,6-dihydropyrimidine-5-carboxamide or 4-amino-1-(4-((S)-1-fluoroethyl)-2,6-dimethylphenyl)-6-oxo-N-(5-((R)-piperidin-2-yl)pyridin-3-yl)-1,6-dihydropyrimidine-5-carboxamide] | 6.89 | 8.46 | 6.83 | 8.80 |
| COc1cc(Cl)c(-n2cnc(N)c(C(=O)Nc3cncc([C@@H]4NC[C@H]5CCC[C@H]54)c3)c2=O)c(Cl)c1 (single isomer, unassigned) [Example 32, 4-amino-1-(2,6-dichloro-4-methoxyphenyl)-N-(5-((1R,3aS,6aR)-octahydrocyclopenta[c]pyrrol-1-yl)pyridin-3-yl)-6-oxo-1,6-dihydropyrimidine-5-carboxamide or 4-amino-1-(2,6-dichloro-4-methoxyphenyl)-N-(5-((1S,3aR,6aS)-octahydrocyclopenta[c]pyrrol-1-yl)pyridin-3-yl)-6-oxo-1,6-dihydropyrimidine-5-carboxamide] | 6.80 | 8.20 | 6.57 | 8.59 |
| CNC(C)c1cncc(NC(=O)c2c(N)ncn(-c3c(Cl)cc(OC)cc3Cl)c2=O)c1 (single isomer, unassigned) [Example 19, (R)-4-amino-1-(2,6-dichloro-4-methoxyphenyl)-N-(5-(1-(methylamino)ethyl)pyridin-3-yl)-6-oxo-1,6-dihydropyrimidine-5-carboxamide or (S)-4-amino-1-(2,6-dichloro-4-methoxyphenyl)-N-(5-(1-(methylamino)ethyl)pyridin-3-yl)-6-oxo-1,6-dihydropyrimidine-5-carboxamide] | 6.75 | 8.49 | 6.64 | 8.46 |
| COC[C@@H](N)c1cccc(NC(=O)c2c(N)ncn(-c3c(C)cc(OC)cc3Cl)c2=O)c1 (atropisomer, axis not shown) [Example 1, (S)-4-amino-N-(3-(1-amino-2-methoxyethyl)phenyl)-1-((S)-2-chloro-4-methoxy-6-methylphenyl)-6-oxo-1,6-dihydropyrimidine-5-carboxamide] | 6.61 | 8.44 | 6.77 | 8.44 |
| CCNCc1cncc(NC(=O)c2c(N)ncn(-c3c(Cl)cc(CC(F)(F)F)cc3Cl)c2=O)c1 [Example 202, 4-amino-1-(2,6-dichloro-4-(2,2,2-trifluoroethyl)phenyl)-N-(5-((ethylamino)methyl)pyridin-3-yl)-6-oxo-1,6-dihydropyrimidine-5-carboxamide] | 6.41 | 8.06 | 6.36 | 8.23 |
| CCOC[C@@H](N)c1cncc(NC(=O)c2c(N)ncn(-c3c(C)cc(COC)cc3C)c2=O)c1 (single isomer, unassigned) [Example 177, (S)-4-amino-N-(5-(1-amino-2-ethoxyethyl)pyridin-3-yl)-1-(4-(methoxymethyl)-2,6-dimethylphenyl)-6-oxo-1,6-dihydropyrimidine-5-carboxamide or (R)-4-amino-N-(5-(1-amino-2-ethoxyethyl)pyridin-3-yl)-1-(4-(methoxymethyl)-2,6-dimethylphenyl)-6-oxo-1,6-dihydropyrimidine-5-carboxamide] | 6.55 | 8.40 | 6.70 | 8.55 |
| CCC(N)c1cncc(NC(=O)c2c(N)ncn(-c3c(C)cc(C(F)F)cc3C)c2=O)c1 (single isomer, unassigned) [Example 128, (R)-4-amino-N-(5-(1-aminopropyl)pyridin-3-yl)-1-(4-(difluoromethyl)-2,6-dimethylphenyl)-6-oxo-1,6-dihydropyrimidine-5-carboxamide or (S)-4-amino-N-(5-(1-aminopropyl)pyridin-3-yl)-1-(4-(difluoromethyl)-2,6-dimethylphenyl)-6-oxo-1,6-dihydropyrimidine-5-carboxamide] | 6.26 | 7.72 | 5.93 | 8.11 |
